“Also recorded” adds a separate entry of the source.
Legend:
Msm = settings: on 7H11
Msm cells = assay: Effect of screened compounds on cell viability (control plates of the M-PFC screen); settings: at high concentrations
[1] = target: T1, Esat6-Cfp10 (Rv3875-Rv3874) interaction (Mycobacterium tuberculosis, UniProt P9WNK5+P9WNK7); assay: M-PFC counter-screen with the Esat6-Cfp10 interacting pair; type: cell-based
T1 construct: The complete open reading frames (ORF) were cloned into pUAB100 and pUAB200; Gly10 linker + mDHFR fragment F[1,2]; Gly10 linker + mDHFR fragment F[3]; expressed in transfected cells; host or cells: Mycobacterium smegmatis

[2] = target: DevS(HKD)-DevR interaction (Mycobacterium tuberculosis, UniProt P9WMF9); assay: M-PFC TRIM plate assay of the DevS(HKD)-DevR interaction; type: cell-based; settings: 10 and 25 μg/mL, TRIM plates, FIG. 12
Text: Additionally, whether inhibition of DevR dimerization effected upstream interactions with DevR and DevS (Rv3132c), a corresponding sensor histidine kinase involved in the Mycobacterium dormancy pathway was investigated.

Mycobacterial cells = assay: Viability of Mycobacterial cells with rapamycin; settings: rapamycin concentrations as high as 200 μg/mL

DevS(HKD)-DevR interaction, sequence (P9WMF9 whole entry, looked up): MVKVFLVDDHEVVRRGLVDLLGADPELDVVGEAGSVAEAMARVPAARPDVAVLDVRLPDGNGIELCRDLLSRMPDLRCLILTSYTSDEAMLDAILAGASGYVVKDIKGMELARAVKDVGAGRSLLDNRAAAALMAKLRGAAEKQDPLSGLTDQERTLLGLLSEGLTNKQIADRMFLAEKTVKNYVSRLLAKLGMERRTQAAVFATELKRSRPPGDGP
T1 sequence (P9WNK7 whole entry, the tested form may be a part): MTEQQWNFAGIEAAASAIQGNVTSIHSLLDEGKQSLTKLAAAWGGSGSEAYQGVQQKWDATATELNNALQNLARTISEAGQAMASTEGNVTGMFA
T1 sequence (P9WNK5 whole entry, the tested form may be a part): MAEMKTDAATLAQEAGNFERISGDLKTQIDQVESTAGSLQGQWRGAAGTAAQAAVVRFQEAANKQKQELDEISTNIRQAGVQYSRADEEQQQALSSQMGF

SMILES: COc1cc(Cc2cnc(N)nc2N)cc(OC)c1OC [TRIM, trimethoprim]
- TRIM concentration to which Msm is sensitive (Msm): ~40 µg/mL

SMILES: Cl.Cn1c(=N)n(CC(=O)c2cc(C(C)(C)C)c(O)c(C(C)(C)C)c2)c2ccccc21 [1-(3,5-di-tert-butyl-4-hydroxyphenyl)-2-(2-imino-3-methyl-2,3-dihydro-1H-benzimidazol-1-yl)ethanone hydrochloride]
- effect on cell viability (Msm cells): effect cell viability at high concentrations

SMILES: CC(=O)NS(=O)(=O)c1ccc(NC(=O)CCc2ccccc2)cc1 [N-(4-[(acetylamino)sulfonyl]phenyl)-3-phenylpropanamide]
- effect on the Esat6-Cfp10 interaction [1]: unaffected
- disruption of the DevS(HKD)-DevR interaction [2]: disrupt the DevS(HKD)-DevR interaction; also recorded: capable of disrupting the DevS(HKD)-DevR interaction

SMILES: CO[C@H]1C[C@@H]2CC[C@@H](C)[C@@](O)(O2)C(=O)C(=O)N2CCCC[C@H]2C(=O)O[C@H]([C@H](C)C[C@@H]2CC[C@@H](O)[C@H](OC)C2)CC(=O)[C@H](C)/C=C(\C)[C@@H](O)[C@@H](OC)C(=O)[C@H](C)C[C@H](C)/C=C/C=C/C=C/1C [rapamycin]
- viability of the Mycobacterial cells (Mycobacterial cells): not effected

From patent publication US8603751B2, “Mycobacterial disease detection, treatment, and drug discovery” (priority 2006, dated 2013)
